Consider 6 compounds from patent US20190225650A1, “PEPTIDOMIMETIC MACROCYCLES AND USE THEREOF IN REGULATING HIF1ALPHA” (AILERON THERAPEUTICS, INC., priority 2013, published 2019).

Structures are written as SMILES. Bridge positions count the residues as written; N and C are the ends. Square brackets hold non-standard residues; d marks the D form. Peptide text beside a SMILES is read from it. R8 = C=CCCCCCC[C@@](C)(N)C(=O)O; S5 = C=CCCC[C@](C)(N)C(=O)O; Nle = CCCC[C@H](N)C(=O)O; Abu = CC[C@H](N)C(=O)O

In experiment [1] the test system is HRE-bla ME-180 cells. Nature of the experiment: Reporter gene assay (HRE-bla ME-180 HIF reporter, GeneBLAzer). Type of experiment: cell-based, human. Particulars: for EC50: 24 hour normoxia. In short, it runs like this:
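A FRET β-lactamase readout of HIF transcription was used. After compound treatment in 0.3% DMSO/media under normoxic conditions, 20 μl of 6× LiveBLAzer-FRET B/G (CCF4-AM) substrate was added. Plates sat 3 hr at room temperature in the dark and were read at 409 Ex/460Em and 409Ex/530Em on a Synergy 2. Inhibition was compared against DMSO vehicle controls, with chetomin as positive control.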
For orientation: Reporter assays use an easily measured gene product as a stand-in for the process of interest.

For experiment [2], the system named is HRE-bla ME-180 cells. Nature of the experiment: Cell proliferation assay (viability, MTT, 1% FBS). Type of experiment: cell-based, human. A digest of the protocol:
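ME-180 cells (2×10^4/well) in Opti-MEM with 1% FBS were pretreated 16 h under normoxia (21% O2), vehicle 0.5% DMSO final. Incubation then continued under normoxia or hypoxia (1% O2); viable cells quantified by MTT-type CellTiter 96 assay.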

For experiment [3], the target named is T1, flag-tagged HIF1α (AA 786-826) / His6-tagged p300 (AA 323-423) complex (Homo sapiens, UniProt Q09472).
T1 construct: His6-tagged p300 (AA 323-423); made in house; host or cells: E. coli (pETDuet vector)
T1 sequence (Q09472 323-423, one chain of several): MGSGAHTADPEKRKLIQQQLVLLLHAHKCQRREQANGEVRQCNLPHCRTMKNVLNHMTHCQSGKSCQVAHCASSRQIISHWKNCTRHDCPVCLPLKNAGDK
Nature of the experiment: HIF1α p300 displacement assay (TR FRET, +CHAPS). Conditions: read-out: IC50 (nM) (HIF1α_p300 Displacement + CHAPS). Type of experiment: binding. A digest of the protocol: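 The co-expressed flag-HIF1α (786-826)/His6-p300 (323-423) complex, purified from E. coli with 0.1 mM ZnSO4, was used at 300 nM final with competitor peptides for 1 h at room temperature. Buffer was 150 mM NaCl, 20 mM HEPES pH 7.4, 7.5 mM CHAPS and 1 mM DTT. Anti-Flag-K (0.5 μM) and anti-His-D2 (4 nM) were then added for 2 h, and IC50s were fitted from the TR-FRET ratio.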
(In TR-FRET formats the signal depends on donor and acceptor labels being close together.)

Turning to `CC[C@@H]1NC(=O)[C@H](CC(=O)O)NC(=O)[C@H](Cc2ccc(O)cc2)NC(=O)[C@@](C)(NC(=O)[C@@H](NC(=O)[C@H](CC(C)C)NC(=O)[C@H](CCC(N)=O)NC(=O)[C@@H]2CCCN2C(=O)[C@H](CC(C)C)NC(=O)[C@H](CCC(=O)O)NC(=O)[C@H](CCCCN)NC(=O)[C@@H](NC(=O)[C@H](CCCNC(=N)N)NC(=O)[C@H](CC(=O)O)NC(=O)[C@H](CC(C)C)NC(=O)CNC(=O)[C@H](CCSC)NC(=O)[C@]2(C)CCCC=CCCC[C@](C)(NC(=O)[C@H](CCSC)NC(=O)[C@H](CC(C)C)NC(=O)[C@@H](NC(=O)[C@H](CCC(=O)O)NC(=O)[C@H](CCC(=O)O)NC(=O)[C@H](CC(=O)O)NC(=O)[C@@H](NC(=O)[C@H](Cc3ccccc3)NC(C)=O)[C@@H](C)CC)C(C)C)C(=O)N[C@@H](CC(C)C)C(=O)N[C@@H](C(C)C)C(=O)N[C@@H]([C@@H](C)CC)C(=O)N2)[C@@H](C)CC)[C@@H](C)O)CCCC=CCCC[C@@](C)(C(=O)N[C@H](C(=O)N[C@@H](CC(N)=O)C(=O)N[C@@H](C)C(N)=O)C(C)C)NC1=O` [SP-321] (Ac-FIDEEVLM[S5]LVI[S5]MGLDRIKELPQLT[S5]YD[Abu][S5]VNA-NH2; staple 9-13, 27-31), in the experiment with HRE-bla ME-180 cells [1], the “18 h Avg % max inhibition at top conc (HIF Rptr-24 hrs normoxia) (μM)” value is recorded as “+++ (≤25 but <50: +++)” and the concentration giving a half-maximal response (EC50) (as a rule, the midpoint of the concentration-response curve) lay within 15 to 30 µM. For the same compound, the “Viability 1% FBS AVG (MTT V3-24 hr Normoxia) (μM)” value in the experiment on HRE-bla ME-180 cells [2] is given as “++++ (≥30: ++++)”. For the same compound, the half-maximal inhibitory concentration (IC50) – broadly, the midpoint of a concentration-inhibition curve – in experiment [3] lay in the range of 200 to 400 nM.
The like results for `CCCC[C@H](NC(=O)[C@H](CCC(=O)O)NC(=O)[C@]1(C)CCCC=CCCCCCC[C@@](C)(NC(=O)[C@H](CCC(=O)O)NC(=O)[C@H](CC(=O)O)NC(=O)[C@@H](NC(=O)[C@H](CC(N)=O)NC(=O)[C@@H](NC(=O)[C@]2(C)CCCC=CCCCCCC[C@@](C)(NC(=O)[C@H](C)NC(=O)CNC(=O)[C@H](CCC(N)=O)NC(=O)[C@H](CC(C)C)NC(=O)[C@H](CC(C)C)NC(C)=O)C(=O)N[C@@H](CC(C)C)C(=O)N[C@@H](CC(C)C)C(=O)N[C@@H](CCCNC(=N)N)C(=O)N[C@@H](C)C(=O)N[C@@H](CC(C)C)C(=O)N[C@@H](CC(=O)O)C(=O)N2)C(C)C)[C@@H](C)CC)C(=O)N[C@@H](C(C)C)C(=O)N[C@@H](CC(C)C)C(=O)N[C@@H](CCCC)C(=O)N[C@@H](CO)C(=O)N[C@@H](CC(C)C)C(=O)N[C@@H](C(C)C)C(=O)N1)C(N)=O` [SP-353] (Ac-LLQGA[R8]LLRALD[S5]VNIDE[R8]VL[Nle]SLV[S5]E[Nle]-NH2; staple 6-13, 19-26) were, in that order, “+++ (≤25 but <50: +++)”, more than 30 µM, “++++ (≥30: ++++)” and not above 200 nM.
The like results for `CCCC[C@H](NC(=O)[C@H](CCC(=O)O)NC(=O)[C@]1(C)CCCC=CCCCCCC[C@@](C)(NC(=O)[C@H](CCC(=O)O)NC(=O)[C@H](CC(=O)O)NC(=O)[C@@H](NC(=O)[C@H](CC(N)=O)NC(=O)[C@@H](NC(=O)[C@H](CCC(N)=O)NC(=O)[C@]2(C)CCCC=CCCC[C@](C)(NC(=O)[C@H](CC(C)C)NC(=O)[C@H](CCC(=O)O)NC(=O)[C@H](CCC(=O)O)NC(=O)CNC(=O)[C@H](CCC(N)=O)NC(=O)[C@H](CC(C)C)NC(=O)[C@H](CC(C)C)NC(C)=O)C(=O)N[C@@H](CCCNC(=N)N)C(=O)N[C@@H](C)C(=O)N[C@@H](CC(C)C)C(=O)N2)C(C)C)[C@@H](C)CC)C(=O)N[C@@H](C(C)C)C(=O)N[C@@H](CC(C)C)C(=O)N[C@@H](CCCC)C(=O)N[C@@H](CO)C(=O)N[C@@H](CC(C)C)C(=O)N[C@@H](C(C)C)C(=O)N1)C(=O)NCC(N)=O` [SP-312] (Ac-LLQGEEL[S5]RAL[S5]QVNIDE[R8]VL[Nle]SLV[S5]E[Nle]G-NH2; staple 8-12, 19-26) were, in that order, “++++ (≥50: ++++)”, not above 5 µM, “++++ (≥30: ++++)” and more than 700 nM.
The like results for `CCCC[C@H](NC(=O)[C@H](Cc1ccccc1)NC(=O)[C@@H](NC(=O)[C@H](CCC(=O)O)NC(=O)[C@H](CCC(N)=O)NC(=O)[C@H](CC(=O)O)NC(=O)[C@@H](NC(=O)[C@H](Cc1ccccc1)NC(C)=O)[C@@H](C)CC)C(C)C)C(=O)N[C@@]1(C)CCCC=CCCC[C@@](C)(C(=O)N[C@@H](CCCC)C(=O)N[C@@H](C)C(=O)N[C@@H](CC(C)C)C(=O)N[C@@H](CC(=O)O)C(=O)N[C@@H](CCCNC(=N)N)C(=O)N[C@H](C(N)=O)[C@@H](C)CC)NC(=O)[C@H]([C@@H](C)CC)NC(=O)[C@H](C(C)C)NC(=O)[C@H](CC(C)C)NC1=O` [SP-269] (Ac-FIDQEVF[Nle][S5]LVI[S5][Nle]ALDRI-NH2; staple 9-13) were, in that order, “+++ (≤25 but <50: +++)”, 15 to 30 µM, “++++ (≥30: ++++)” and 400 to 700 nM.
Take `CCCC[C@@H]1NC(=O)[C@H](CC(C)C)NC(=O)[C@H](C(C)C)NC(=O)[C@@](C)(NC(=O)[C@H](CCC(=O)O)NC(=O)[C@H](CC(=O)O)NC(=O)[C@@H](NC(=O)[C@H](Cc2ccccc2)NC(C)=O)[C@@H](C)CC)CCCC=CCCCC2(CCCC=CCCC[C@](C)(C(=O)N[C@@H](CCC(N)=O)C(=O)N[C@@H](C)C(=O)N[C@@H](CC(C)C)C(N)=O)NC(=O)[C@H]([C@@H](C)CC)NC(=O)[C@H](C(C)C)NC(=O)[C@H](CC(C)C)NC2=O)NC1=O` (stereo partly drawn) [SP-212]: in the experiment with HRE-bla ME-180 cells [1], the “18 h Avg % max inhibition at top conc (HIF Rptr-24 hrs normoxia) (μM)” value is listed as “++++ (≥50: ++++)” and the EC50 fell in the range of 5 to 15 µM. Moreover, the “Viability 1% FBS AVG (MTT V3-24 hr Normoxia) (μM)” value in the experiment with HRE-bla ME-180 cells [2] is on record as “++ (≤5 but <15: ++)”. The IC50 in experiment [3] fell in the range of 200 to 400 nM.
The matching figures for `CC[C@H](C)[C@H](NC(=O)[C@H](CC(N)=O)NC(=O)[C@@H](NC(=O)[C@H](CCC(N)=O)NC(=O)[C@H](CC(=O)O)NC(=O)[C@H](CC(C)C)NC(=O)[C@H](C)NC(=O)[C@H](CCCNC(=N)N)NC(=O)[C@H](CC(C)C)NC(=O)[C@H](CC(C)C)NC(=O)[C@H](CCC(=O)O)NC(=O)[C@H](CCC(=O)O)NC(=O)CNC(=O)[C@H](CCC(N)=O)NC(=O)[C@H](CC(C)C)NC(=O)[C@H](CC(C)C)NC(C)=O)C(C)C)C(=O)N[C@@H](CC(=O)O)C(=O)N[C@@H](CCC(=O)O)C(=O)N[C@]1(C)CCCCCCC=CCCC[C@@](C)(C(=O)N[C@@H](CCC(=O)O)C(=O)N[C@@H](CCSC)C(N)=O)NC(=O)[C@H](C(C)C)NC(=O)[C@H](CC(C)C)NC(=O)[C@H](CO)NC(=O)[C@H](CCSC)NC(=O)[C@H](CC(C)C)NC(=O)[C@H](C(C)C)NC1=O` [SP-320] (Ac-LLQGEELLRALDQVNIDE[R8]VLMSLV[S5]EM-NH2; staple 19-26): “+ (<10: +)”, more than 30 µM, “++++ (≥30: ++++)” and 200 to 400 nM.
